# Test: LC-HRMS analysis of PCB52 metabolites in tissues after 4 h nose-only inhalation
# Format: in vivo, Sprague–Dawley rats
# Description: The Institutional Animal Care and Use Committee of the University of Iowa approved all of the animal protocols. Animals were housed in a temperature- and humidity-controlled room (21 °C, 55% relative humidity) with a 12 h light/dark cycle in an Association for the Assessment and Accreditation of Laboratory Animal Care (AAALAC) accredited animal facility. Animals were provided with food (sterile Teklad 5% stock diet, Harlan, Madison, WI) and water ad libitum throughout the study. Thirty-six male and female Sprague–Dawley rats (7 weeks of age; Charles River, Wilmington, MA) were allowed to acclimate to the animal facility for 8 days after arrival. Prior to exposure, rats (227 ± 27 and 197 ± 13 g, male and female, respectively) were randomly assigned to the exposure groups (n = 6 per group) using a random number generated (Excel, version 2307). Animals were simultaneously exposed for 4 h to a low or high concentration of PCB52-laden per sex) or filtered lab air (Figure 1A). Exposure duration was limited to 4 h along with scheduled training days (30 min at 55 days of age and 2 h at 56 days of age) to acclimate animals and minimize stress. […]
# Tissues (brain, cecum and intestinal content, liver, lung, and serum) were homogenized and extracted for LC-HRMS analysis following a published approach; see the Supporting Information.[19] Extracts were analyzed at the High-Resolution Mass Spectrometry Facility at the University of Iowa on a Q-Exactive Orbitrap mass spectrometer (Thermo Fisher Scientific, Waltham, MA, U.S.A.) with an Axquity UPLC-C18 column (particle size: […], 2.1 × 100 mm, Waters, Milford, MA, U.S.A.); see the Supporting Information. […]
# All analyses were conducted by using validated standard operating procedures. […] X1-OH-PCB52 estimated concentrations were calculated based on the relative response factor of 4-OH-PCB52. The precision and recoveries of the analyses were further assessed by measuring the recovery of PCB52 and 4-OH-PCB52 from spiked sample blanks and matched blank tissue matrices (Table S6). […]
# were extracted and analyzed in parallel. […]
smiles,measurement,setting,value
"Clc1ccc(Cl)c(-c2cc(Cl)ccc2Cl)c1 [PCB52, 2,2′,5,5′-tetrachlorobiphenyl]",number of PCB52 metabolites identified by LC-HRMS,liver,7 metabolites
same,number of PCB52 metabolites identified by LC-HRMS,lung,9 metabolites
same,number of PCB52 metabolites identified by LC-HRMS,serum,9 metabolites
